Measured values published in US20250098673A1, “COMPOSITIONS, MEANS AND METHODS FOR A NOVEL INSECT REPELLENT” (priority 2019, published 2025).

Tests used:
[1] = system: Whitefly (Bemisia tabaci); assay: Study 1: pest control experiment in cauliflower compared to Mospilan; format: in vivo
Protocol: Whitefly (Bemisia tabaci), is a major pest, in many crops around the world. These pests are carriers of several virus diseases and are damaging the leaves and fruit with scratches and punch-and-suck activity. Furthermore, in cauliflower, excreting honeydew on the leaves and fruit, causes to mold development, which can disqualify the products for the market.
DHA was sprayed in two doses on cauliflower, for checking the effect on Whiteflies. These treatments were tested vs. a standard treatment (Mospilan) and a control treatment (not spraying): • DHA, 2.5% (aqueous solution) • DHA, 5% (aqueous solution) • Mospilan (Acetamiprid 200 g/L), 500 ml per hectare • Control (water spraying)
The experiment was implemented with 4 replicates for each treatment (randomly spread). Each replicate was 12 m long and 2 m width. Spraying volume was 40 L/Dunam. The solution for spraying was in a volume of 4 L.
Counting and statistics: Counting Whiteflies and Thrips was made on 20 leaves, selected randomly in each replicate. Variance analysis was made by Tukey-Kramer (α=0.05). Counting was performed every 7 days.

Culex quinquefasciatus = assay: Arm-in-cage mosquito repellency test on human subjects (Protection Time); format: in vivo; conditions: mean of 5 subjects; Sano data obtained at a different time (historical comparison)
Protocol: In an embodiment of this invention, the insect repellent effect of a 20% DHA solution was studied. These studies were carried out at Poseidon Sciences Insect Control Laboratory (Miagao, Iloilo, Philippines), a breeding facility for C. quinquefasciatus, for research and development. The insect repellency of a DHA solution, comprising 20% DHA dissolved in a 30% ethanol aqueous solution, was compared to that of a Placebo solution, comprising 30% ethanol in water, as a negative control solution. As a positive control, the repellency of DHA was also compared to that of a commercial Sano insect repellent, a plant based repellent, using a composition of 20% of citrepel 75 dissolved in water. The placebo and the 20% DHA solution were kept in a refrigerator until the day of use. The samples were removed from the refrigerator and kept at room temperature for 3 hours before the tests were undertaken.
The above-mentioned solutions were then tested on a total of 10 subjects (age 19 to 44 comprising a total of 6 women and 4 men), all in good health. Each subject had signed an Informed Consent Form. This study had been approved by Poseidon Sciences IRB (Institutional Review Board). […]
Following application of the tested solution to the arm of the subject, testing was carried out as follows: a research scientist recorded the time of insertion of the arm into the cage and observed mosquito landing. […]

[2] = cited from earlier work

With `O=C(CO)CO` [DHA, Dihydroxyacetone] the “reduction of mature Whitefly compared to control group” value ([1]; adults, significant) was about 65%, the “reduction of young stage Whitefly (trend)” value ([1]; young stage, trend) was about 40% and the “Protection Time, Mean” value (Culex quinquefasciatus) was 45 min. The carcinogenicity ([2]; SCCS report 2010) was “non-carcinogenic”, the irritancy ([2]; SCCS report 2010) was “non-irritant” and the “skin sensitization or photo sensitization” value ([2]; SCCS report 2010) was “did not cause skin sensitization or photo sensitization effects”. The systemic absorption ([2]; application to skin) was “not systemically absorbed” and the “safety of DHA sprays applied to skin” value ([2]; concentrations of up to 10%, SCCS report 2010) was “safe to use”.
